Marks after values point to notes of the source that are not given here.
Assays:
GSK-3 = experiment: Protein kinase assay ([γ-33P]-ATP, GS-1 substrate), GSK-3; conditions: for IC50: read-out: IC50 GSK3, 15 µM ATP
Method: First, the kinases were incubated with 10 µM solutions of the compounds and the residual activities compared to controls were measured.
Controls were performed with appropriate dilutions of DMSO. The GS-1 and RS peptide substrates were obtained from Proteogenix (Oberhausbergen, France).
After 30 min incubation at 30 °C, the reaction was stopped by harvesting onto P81 phosphocellulose supernatant (Whatman) using a FilterMate harvester (Packard) and washing in 1% phosphoric acid. Scintillation fluid was added and the radioactivity measured in a Packard counter [52].
All data points for construction of dose response curves were recorded in triplicate.

[1] = Kinetic solubility, laser nephelometry; assay type: physicochemical; conditions: phosphate buffer pH 7.4, nephelometry
Method: The kinetic solubility was determined using laser nephelometry. A stock solution of the test compounds in DMSO was prepared and further diluted with DMSO to achieve a dilution series of 8–12 solutions with different concentrations. The DMSO solutions (2 µL) were placed in a row on a 96-well plate and diluted with aqueous phosphate buffer pH 7.4 (198 µL). The well plate was scanned by a nephelometer (Nephelostar Plus, BMG Labtech, Ortenberg, Germany). Unsolved particles scatter the laser light which is detected by the nephelometer. The intensity of the scattered light is proportional to the particle concentration in the suspension. The intensity of the scattered light was plotted versus the concentration to obtain a kick off curve. The concentration at which the compounds began to precipitate was directly read out from the kick off curve.

DYRK1B = DYRK1B (Homo sapiens, UniProt Q9Y463); experiment: Protein kinase assay ([γ-33P]-ATP, RS peptide substrate), DYRK1B; assay type: biochemical; conditions: 15 µM ATP; read-out: IC50 DYRK 1B
DYRK1B, sequence (Q9Y463 whole entry, the tested form may be a part): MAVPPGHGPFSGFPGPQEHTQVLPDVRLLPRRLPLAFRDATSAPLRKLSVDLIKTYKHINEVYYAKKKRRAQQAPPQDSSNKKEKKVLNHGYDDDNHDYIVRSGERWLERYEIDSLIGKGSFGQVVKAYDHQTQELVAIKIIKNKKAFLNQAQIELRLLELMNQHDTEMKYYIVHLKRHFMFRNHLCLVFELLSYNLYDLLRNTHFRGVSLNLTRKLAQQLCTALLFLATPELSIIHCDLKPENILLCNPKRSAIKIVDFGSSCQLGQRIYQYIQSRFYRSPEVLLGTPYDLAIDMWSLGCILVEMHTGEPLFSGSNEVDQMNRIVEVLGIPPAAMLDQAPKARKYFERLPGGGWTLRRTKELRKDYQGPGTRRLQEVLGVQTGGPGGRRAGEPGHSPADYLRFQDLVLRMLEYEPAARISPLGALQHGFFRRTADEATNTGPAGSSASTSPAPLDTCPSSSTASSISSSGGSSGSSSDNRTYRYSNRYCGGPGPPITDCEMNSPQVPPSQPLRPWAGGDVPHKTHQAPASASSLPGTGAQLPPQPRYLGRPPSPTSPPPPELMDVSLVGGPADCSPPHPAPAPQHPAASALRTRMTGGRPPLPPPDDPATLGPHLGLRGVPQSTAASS
Method: (§1) DYRK1A, 1B, 2, 3 (human, recombinant, expressed in E. coli as GST fusion proteins) and CLK1, 2, 3, and 4 (mouse, recombinant, expressed in E. coli as GST fusion proteins) were assayed as described for GSK-3 in Buffer A (supplemented extemporaneously with 0.15 mg BSA/mL + 1 mM DTT) with 1 µg of RS peptide ([…]) as a substrate.

DYRK3 = molecular target: T1, DYRK3 (Homo sapiens, UniProt O43781); experiment: Protein kinase assay ([γ-33P]-ATP, RS peptide substrate), DYRK3; assay type: biochemical; conditions: for IC50: 15 µM ATP; for inhibition at 10 µM: 10 µM compound, read-out: Inhibition at 10 µM DYRK3 (class symbol)
T1 sequence (O43781 1-588): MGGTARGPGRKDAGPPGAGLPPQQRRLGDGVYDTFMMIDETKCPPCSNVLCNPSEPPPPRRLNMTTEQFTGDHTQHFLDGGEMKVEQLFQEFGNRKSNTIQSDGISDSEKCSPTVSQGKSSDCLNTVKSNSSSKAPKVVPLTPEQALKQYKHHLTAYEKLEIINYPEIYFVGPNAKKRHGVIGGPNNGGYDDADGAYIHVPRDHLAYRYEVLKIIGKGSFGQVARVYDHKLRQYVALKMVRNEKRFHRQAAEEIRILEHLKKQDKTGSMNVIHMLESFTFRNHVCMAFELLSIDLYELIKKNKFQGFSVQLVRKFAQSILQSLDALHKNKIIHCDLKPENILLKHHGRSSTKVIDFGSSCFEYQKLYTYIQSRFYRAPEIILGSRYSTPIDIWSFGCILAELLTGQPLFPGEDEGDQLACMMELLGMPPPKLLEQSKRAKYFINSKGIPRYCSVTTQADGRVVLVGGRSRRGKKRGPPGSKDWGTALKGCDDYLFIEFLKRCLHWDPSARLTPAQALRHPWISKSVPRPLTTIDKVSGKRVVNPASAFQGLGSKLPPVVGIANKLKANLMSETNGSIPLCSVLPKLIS
Method: as §1

CLK3 = CLK3 (Mus musculus, UniProt O35492); experiment: Protein kinase assay ([γ-33P]-ATP, RS peptide substrate), CLK3; assay type: biochemical; conditions: for IC50: 15 µM ATP; for inhibition at 10 µM: 10 µM compound, read-out: Inhibition at 10 µM CLK3 (class symbol)
CLK3, sequence (O35492 whole entry): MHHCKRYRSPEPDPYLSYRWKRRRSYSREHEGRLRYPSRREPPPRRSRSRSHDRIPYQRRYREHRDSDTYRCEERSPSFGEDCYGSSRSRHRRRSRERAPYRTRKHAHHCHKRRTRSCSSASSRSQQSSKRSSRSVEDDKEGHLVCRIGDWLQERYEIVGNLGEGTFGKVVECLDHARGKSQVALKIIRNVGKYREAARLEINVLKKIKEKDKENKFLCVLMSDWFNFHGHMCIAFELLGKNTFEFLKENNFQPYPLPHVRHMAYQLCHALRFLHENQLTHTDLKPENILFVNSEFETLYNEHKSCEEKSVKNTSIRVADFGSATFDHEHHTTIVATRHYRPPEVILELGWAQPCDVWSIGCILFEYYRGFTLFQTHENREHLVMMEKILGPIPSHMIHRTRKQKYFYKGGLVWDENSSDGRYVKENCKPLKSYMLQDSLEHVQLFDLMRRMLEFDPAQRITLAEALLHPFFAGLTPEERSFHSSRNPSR
Method: as §1

CLK2 = CLK2 (Mus musculus, UniProt O35491); experiment: Protein kinase assay ([γ-33P]-ATP, RS peptide substrate), CLK2; assay type: biochemical; conditions: 15 µM ATP
CLK2, sequence (O35491 whole entry): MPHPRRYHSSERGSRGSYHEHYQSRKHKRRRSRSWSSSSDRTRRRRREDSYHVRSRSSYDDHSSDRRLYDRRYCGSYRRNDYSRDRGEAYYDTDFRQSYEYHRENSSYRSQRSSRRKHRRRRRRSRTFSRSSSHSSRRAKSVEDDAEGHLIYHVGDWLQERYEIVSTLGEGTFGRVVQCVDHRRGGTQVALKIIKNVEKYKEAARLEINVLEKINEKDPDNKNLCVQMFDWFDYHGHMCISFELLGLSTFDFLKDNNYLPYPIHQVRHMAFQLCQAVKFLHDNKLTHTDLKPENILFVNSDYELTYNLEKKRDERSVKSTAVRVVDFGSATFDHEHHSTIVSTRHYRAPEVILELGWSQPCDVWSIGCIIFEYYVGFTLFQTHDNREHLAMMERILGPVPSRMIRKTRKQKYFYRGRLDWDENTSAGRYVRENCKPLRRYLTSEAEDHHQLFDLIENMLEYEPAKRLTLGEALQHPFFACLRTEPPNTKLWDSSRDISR
Method: as §1

[2] = Thermodynamic solubility, shake-flask method with HPLC quantification; assay type: physicochemical; conditions: phosphate buffer pH 7.4, 25 °C
Method: For solubility assays an aqueous phosphate buffer pH 7.4 was used. The buffer was prepared by dissolving Na2HPO4 × 2 H2O (298 mg), KH2PO4 (19 mg) and NaCl (800 mg) in water (100 mL). The pH was adjusted to 7.4 by addition of hydrochloric acid. The thermodynamic solubility was determined using a shake-flask method with quantification by a HPLC method. The test compounds (500 µg) were incubated with aqueous phosphate buffer pH 7.4 (400 µL) in sealed Whatman MiniUniPrep vials (GE Healthcare, Freiburg, Germany). The mixtures were shaken at 25 °C and 400 rpm for 24–96 h (IKA KS 3000 ic control, IKA-Werke, Staufen, Germany). After 24 h, 48 h and 72 h, the mixtures were visually inspected for remaining solids and the solids were filtered off. The concentrations in the resulting saturated solutions were quantified by isocratic HPLC using calibration with external standard. If equilibrium was not reached after 72 h, solubility of a further sample was determined after 96 h. For calibration, a stock solution of 10 mM of the test compounds in DMSO was prepared and the stock solution was diluted with ACN to suitable concentrations. The AUC at the wavelength maxima was used for quantification.

CLK4 = CLK4 (Mus musculus, UniProt O35493); experiment: Protein kinase assay ([γ-33P]-ATP, RS peptide substrate), CLK4; assay type: biochemical; conditions: 15 µM ATP
CLK4, sequence (O35493 whole entry): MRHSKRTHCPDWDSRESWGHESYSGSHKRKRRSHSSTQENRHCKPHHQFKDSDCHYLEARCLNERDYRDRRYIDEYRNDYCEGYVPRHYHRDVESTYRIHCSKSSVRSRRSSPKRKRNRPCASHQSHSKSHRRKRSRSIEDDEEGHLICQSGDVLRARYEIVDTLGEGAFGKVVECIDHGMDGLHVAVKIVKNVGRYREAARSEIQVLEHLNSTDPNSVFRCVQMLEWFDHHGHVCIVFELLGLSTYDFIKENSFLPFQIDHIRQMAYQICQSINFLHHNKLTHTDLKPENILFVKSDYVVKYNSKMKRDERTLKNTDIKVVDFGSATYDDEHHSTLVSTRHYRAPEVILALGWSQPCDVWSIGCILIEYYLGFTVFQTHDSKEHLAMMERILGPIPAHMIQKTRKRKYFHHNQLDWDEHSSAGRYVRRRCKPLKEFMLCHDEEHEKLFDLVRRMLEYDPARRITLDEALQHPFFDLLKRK
Method: as §1

DYRK2 = molecular target: T2, DYRK2 (Homo sapiens, UniProt Q92630); experiment: Protein kinase assay ([γ-33P]-ATP, RS peptide substrate), DYRK2; assay type: biochemical; conditions: for IC50: 15 µM ATP; for inhibition at 10 µM: 10 µM compound, read-out: Inhibition at 10 µM DYRK2 (class symbol)
T2 sequence (Q92630 1-601): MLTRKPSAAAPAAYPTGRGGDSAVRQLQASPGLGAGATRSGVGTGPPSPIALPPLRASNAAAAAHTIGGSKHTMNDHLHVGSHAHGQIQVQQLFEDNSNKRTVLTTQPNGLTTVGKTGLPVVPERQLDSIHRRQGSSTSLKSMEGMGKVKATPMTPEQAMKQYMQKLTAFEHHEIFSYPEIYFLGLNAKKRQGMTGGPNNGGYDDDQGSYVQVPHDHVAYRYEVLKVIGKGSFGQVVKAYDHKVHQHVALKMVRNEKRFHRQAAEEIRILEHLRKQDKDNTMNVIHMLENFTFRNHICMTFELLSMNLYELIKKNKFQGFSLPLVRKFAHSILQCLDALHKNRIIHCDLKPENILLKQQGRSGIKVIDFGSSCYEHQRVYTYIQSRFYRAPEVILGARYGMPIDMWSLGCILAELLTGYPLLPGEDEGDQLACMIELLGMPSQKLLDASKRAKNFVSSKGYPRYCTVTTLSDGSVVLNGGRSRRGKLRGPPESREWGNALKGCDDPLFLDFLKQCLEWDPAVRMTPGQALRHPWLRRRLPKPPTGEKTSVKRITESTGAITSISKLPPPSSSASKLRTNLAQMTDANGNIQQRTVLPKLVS
Method: as §1

CLK1 = CLK1 (Mus musculus, UniProt P22518); experiment: Protein kinase assay ([γ-33P]-ATP, RS peptide substrate), CLK1; assay type: biochemical; conditions: 15 µM ATP
CLK1, sequence (P22518 whole entry): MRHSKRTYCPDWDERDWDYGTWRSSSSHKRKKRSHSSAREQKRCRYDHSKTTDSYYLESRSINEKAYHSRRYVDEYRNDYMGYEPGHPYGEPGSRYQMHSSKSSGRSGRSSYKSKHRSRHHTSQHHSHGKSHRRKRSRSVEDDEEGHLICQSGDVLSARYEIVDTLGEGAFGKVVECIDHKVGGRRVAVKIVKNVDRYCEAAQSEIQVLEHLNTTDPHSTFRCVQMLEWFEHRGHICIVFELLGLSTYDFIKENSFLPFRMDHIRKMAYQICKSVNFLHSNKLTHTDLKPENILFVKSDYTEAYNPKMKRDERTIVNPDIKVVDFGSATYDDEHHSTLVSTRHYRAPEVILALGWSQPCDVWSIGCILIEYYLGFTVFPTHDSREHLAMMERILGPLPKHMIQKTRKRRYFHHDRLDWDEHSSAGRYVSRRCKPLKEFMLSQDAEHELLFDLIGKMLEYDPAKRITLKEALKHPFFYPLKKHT
Method: as §1

[3] = Cytotoxicity, cell viability by tetrazolium dye assay (XTT assay); assay type: cell-based; conditions: human, HeLa cells, read-out: Viability of treated HeLa cells relative to control cells
Method: To evaluate the applicability of the 2-substituted indole-3-carbonitrile compounds in cell culture experiments, we assessed toxicity of 6f, 6h, 6s and 13b on HeLa cells by viability assays (Table 4).
The inhibitors were added to the cultured cells from stock solutions in DMSO to the desired final concentration. For cytotoxicity assays, HeLa cells were grown in 96-well plates (20,000–30,000 cells per well) and incubated with the test compounds for 3 days before cell viability was evaluated with the help of a tetrazolium dye assay (XTT assay, AppliChem GmbH, Darmstadt, Germany).

DYRK1A [4] = molecular target: T3, DYRK1A (Homo sapiens, UniProt Q13627); experiment: Ligand-lipophilicity efficiency (pIC50 minus calculated logP)
Method: All new compounds were evaluated based on their physicochemical properties regarding Lipinski’s rule of five and the ligand-lipophilicity efficiency (LLE). Both concepts are used to assess the druglikeness of drug development candidates. […] LLE is calculated from pIC50 minus calculated logP [46].

DYRK1A [5] = molecular target: T3, DYRK1A; experiment: Protein kinase assay ([γ-33P]-ATP, RS peptide substrate), DYRK1A; assay type: biochemical; conditions: 15 µM ATP; read-out: IC50 DYRK 1A
[6] = pIC50 (DYRK1A) minus calculated logP

Row | Structure (SMILES) | IC50 (GSK-3) | Sexp., kin., pH 7.4 [1] | IC50 (DYRK1B) | IC50 (DYRK3) | IC50 (CLK3) | IC50 (CLK2) | Sexp., therm., pH 7.4 [2] | IC50 (CLK4) | IC50 (DYRK2) | IC50 (CLK1) | viability at 3 days, 1 µM [3] | viability at 3 days, 3 µM [3] | viability at 3 days, 10 µM [3] | LLE (DYRK1A [4]; Table S2) | LLE (DYRK1A [4]; [6]) | IC50 (DYRK1A [5]) | inhibition at 10 µM (DYRK3) | inhibition at 10 µM (CLK3) | inhibition at 10 µM (DYRK2) | Inhibition at 10 µM GSK3 (class symbol) (GSK-3; 10 µM compound)
1 | N#Cc1c[nH]c2c(Cl)cccc12 [Compound 6a, 7-Chloro-1H-indole-3-carbonitrile] | > 10000 nM | 116 ± 14 µM | > 10000 nM | > 10000 nM | > 10000 nM | > 10000 nM | 143 ± 6.3^c µM | > 10000 nM | > 10000 nM |  |  |  |  |  |  |  |  |  |  | 
2 | N#Cc1c[nH]c2c(Br)cccc12 [Compound 6b, 7-Bromo-1H-indole-3-carbonitrile] |  | 142 ± 14 µM | 5900 nM | > 10000 nM | > 10000 nM | > 10000 nM | 136 ± 11 µM | 4000 nM | > 10000 nM | 2900 nM |  |  |  |  |  |  |  |  |  | 
3 | N#Cc1c[nH]c2c(I)cccc12 [Compound 6c, 7-Iodo-1H-indole-3-carbonitrile] |  | 261 (254–267) µM | 1800 nM | > 10000 nM | > 10000 nM | 8000 nM | 45.2 (44.8–45.6) µM | 1800 nM | 8000 nM | 1900 nM |  |  |  |  |  |  |  |  |  | 
4 | N#Cc1c(-c2ccccc2)[nH]c2c(Cl)cccc12 [Compound 6f, 7-Chloro-2-phenyl-1H-indole-3-carbonitrile] |  | 14.7 ± 4.5 µM | > 10000 nM | > 10000 nM | > 10000 nM | > 10000 nM | <0.5 µM | 120 nM | > 10000 nM | 70 nM | 94% | 98% | 85% |  |  |  |  |  |  | 
5 | N#Cc1c(-c2ccccc2)[nH]c2c(Br)cccc12 [Compound 6g, 7-Bromo-2-phenyl-1H-indole-3-carbonitrile] |  | 14.8 ± 0.26 µM | 120 nM | > 10000 nM | > 10000 nM | 433 nM | <0.5 µM | 33 nM | > 10000 nM | 67 nM |  |  |  | 3.34 | 3.34 | 25 nM |  |  |  | 
6 | N#Cc1c(-c2ccccc2)[nH]c2c(I)cccc12 [Compound 6h, 7-Iodo-2-phenyl-1H-indole-3-carbonitrile] |  | 4.57 (4.11–5.03) µM | 570 nM | > 10000 nM | > 10000 nM | 2000 nM | <0.5 µM | 50 nM | > 10000 nM | 80 nM | 97% | 97% | 87% |  |  |  |  |  |  | 
7 | N#Cc1c(-c2cccnc2)[nH]c2c(I)cccc12 [Compound 6p, 7-Iodo-2-(pyridin-3-yl)-1H-indole-3-carbonitrile] |  | 10.0 (7.21–12.9) µM | 300 nM |  |  | > 10000 nM |  | > 10000 nM |  | 200 nM |  |  |  | 3.89 | 3.89 | 80 nM | < 20% | < 20% | < 20% | 
8 | N#Cc1c(C2CC2)[nH]c2c(I)cccc12 [Compound 6r, 2-Cyclopropyl-7-iodo-1H-indole-3-carbonitrile] |  | 38.1 (37.6–38.6) µM | 500 nM | > 10000 nM |  | 1000 nM | <0.5 µM | 100 nM | 8000 nM | 110 nM |  |  |  | 3.37 | 3.37 | 140 nM |  | < 20% |  | - (-: less than 20% inhibition at 10 µM, IC50 was not determined)
9 | N#Cc1c(CC(O)CO)[nH]c2c(Cl)cccc12 (centres unmarked) [Compound 14, 7-Chloro-2-(2,3-dihydroxypropyl)-1H-indole-3-carbonitrile] | 2000 nM |  | 4200 nM |  |  | 10000 nM | 3447 ± 182 ^c µM | 2000 nM |  | 2000 nM |  |  |  | 4.59 | 4.59 | 2000 nM | < 20% | < 20% | < 20% | 
10 | O=C(O)c1nc2ccccc2c2[nH]c3c(I)cccc3c12 [KuFal194 (5), 10-iodo-11H-indolo[3,2-c]quinoline-6-carboxylic acid, reference compound] |  | 5.28 (4.99–5.57) µM |  |  |  |  | < 0.5 µM |  |  |  | 78% | 75% | 45% |  |  |  |  |  |  | 
